The target of assay [1] is T1, CYP3A4 (Homo sapiens, UniProt P08684). In words: Determination of IC50 against CYP3A4 by measurement of inhibition of midazolam metabolism (human liver microsomes, 1-hydroxymidazolam by LC-MS/MS). Format: biochemical. The following applies: 2 μM midazolam, 0.1 mg/mL human liver microsomes. On the set-up: 0.1 mg/mL human liver microsomes. As to the method: 3. Determination of IC50 Against CYP3A4 by Measurement of Inhibition of Midazolam Metabolism
This assay was performed using a standard 96 well plate design. […] The incubation substrate mix contains 2 μM midazolam, 0.1 mg/mL human liver microsomes, 1 mM NADPH, and potassium phosphate buffer (100 mM, pH 7.4). Quantitation of metabolite peak area ratio against internal standard is determined by LC-MS/MS analysis. The production of 1-hydroxymidazolam from midazolam metabolism is determined after incubation for eight minutes by comparison to a standard curve generated for the metabolite.
Samples were analyzed in the MRM mode using a Sciex API 3000 mass spectrometer (Applied Biosystems, Foster City, Calif.) with a Paradigm MS4 binary pump (Michrom BioResources Inc., Auburn, Calif.) and a LEAP CTC PAL autosampler (LEAP Technologies, Carrboro, N.C.). A Phenomenex Synergi, 4μ, Polar-RP, 10×2.0 mm column (Phenomenex, Torrance, Calif.) was used for separation with a mobile phase composition of: 0.1% formic acid in water (A) and: 0.1% formic acid in methanol (B). The following gradient was used: […]
The sample injection volume was 10 μL and flow was split post-column with 0.4 mL/min going to the mass spectrometer. Analysis was performed using the following API 3000 mass spectrometer settings: […]

The target in assay [2] is T1, CYP3A4. The assay is described as follows: Determination of compound Kiapp against recombinant CYP3A4 enzyme (BFC fluorescent substrate). In kind it is biochemical. As to the method:
1. Determination of compound Kiapp
A determination of the Kiapp of the compounds of the invention against recombinant CYP3A4 enzyme was performed as follows. The assay was performed in a 100 mM sodium phosphate buffer pH 7.0, 5 mM TCEP and containing 2% dimethylformamide (final concentration) upon addition of substrate and inhibitor. A typical reaction for the determination of Kiapp values was carried at room temperature in a solid black Costar u-bottom 96-well polypropylene plate. In each well, recombinant CYP3A4 enzyme (5.5 nM or 8 nM, final concentration depending on the commercial source of the enzyme) was pre-incubated in the presence of the inhibitor for at least 30 minutes in the assay buffer. When pre-incubation was completed (˜30 min), the reaction was initiated by adding NADPH (200 uM, final concentration), and 7-benzyloxy-4-(trifluoromethyl)-coumarin (BFC) (5 uM, final concentration). The oxidation of the coumarin substrate was recorded by a 96-well plate reader POLARstar (BMG LABTECH, Offenburg, Germany).
The initial reaction velocities were measured during the first 5 min of the reaction when the release of the fluorescent product is linear with time, in the absence and in the presence of various concentrations of inhibitors. For non-partial & partial inhibitors, the Kiapp values were determined by using the equation for tight-binding inhibitor developed by Morrison, J F (Morrison J F. Biochim Biophys Acta. 1969, 185: 269-86) and by Szedlaseck S E et al. (Szedlascek, S. E., Ostafe, V., Serban, M., and Vlad, M.O. Biochem. J. 1988, 254:311-312), respectively.
The fluorescent substrate BFC was purchased from Sigma (St Louis, Mo.). Two commercial sources of recombinant enzymes were used in this study: recombinant CYP3A4−b5 enzyme (Baculosomes®) was purchased from Invitrogen (Carlsbad, Calif.) and the recombinant CYP3A4+b5 enzyme (Supersomes®) was purchased from BD Biosciences (Woburn, Mass.).

Setting [3] is: Baculo. enzyme preparation, read-out: Kiapp (BFC, Baculo.).
[4] abbreviates: Super. enzyme preparation, read-out: Kiapp (BFC, Super.).

Read-outs that look alike come from different tables or passages of the source. A value given as a limit tells only on which side of the number the result lay.

T1 sequence (P08684 whole entry): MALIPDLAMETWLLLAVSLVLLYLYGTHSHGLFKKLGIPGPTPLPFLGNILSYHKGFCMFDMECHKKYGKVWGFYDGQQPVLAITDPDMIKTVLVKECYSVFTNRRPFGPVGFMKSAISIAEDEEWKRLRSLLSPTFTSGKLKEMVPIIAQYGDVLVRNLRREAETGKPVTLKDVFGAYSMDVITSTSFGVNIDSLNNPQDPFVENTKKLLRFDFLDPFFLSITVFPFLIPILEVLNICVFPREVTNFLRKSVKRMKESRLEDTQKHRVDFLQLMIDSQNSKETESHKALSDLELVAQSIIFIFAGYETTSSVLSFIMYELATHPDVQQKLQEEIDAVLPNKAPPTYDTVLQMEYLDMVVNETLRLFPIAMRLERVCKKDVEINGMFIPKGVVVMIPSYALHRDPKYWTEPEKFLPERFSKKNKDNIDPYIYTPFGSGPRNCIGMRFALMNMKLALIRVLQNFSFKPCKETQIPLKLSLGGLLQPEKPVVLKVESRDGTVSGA

By IC50 is commonly meant the concentration at which inhibition is half-maximal. For `COCCN(C(=O)c1ccccc1S(=O)(=O)Nc1cncc(N)c1)C(C)C` [Example 114, 2-{[(5-aminopyridin-3-yl)amino]sulfonyl}-N-isopropyl-N-(2-methoxyethyl)benzamide], at CYP3A4 [1], the concentration for half-maximal inhibition (IC50) turned out to be 0.134 µM. Moreover, the figures for the Ki at CYP3A4 [2] (setting [3]) and at CYP3A4 [2] (setting [4]) were 0.466 µM and 0.105 µM, respectively.
Consider `CCOc1ccncc1NS(=O)(=O)c1ccccc1C(=O)NCC(C)CC` (stereo not drawn) [Example 115, 2-{[(4-ethoxypyridin-3-yl)amino]sulfonyl}-N-(2-methylbutyl)benzamide], for which the IC50 on CYP3A4 [1] stood at 0.023 µM. Besides, the figures for the Ki on CYP3A4 [2] (setting [3]) and on CYP3A4 [2] (setting [4]) were 0.124 µM and 0.026 µM, respectively.
Take `CCC(C)CNC(=O)c1ccccc1S(=O)(=O)Nc1cnccc1OC` (stereo not drawn) [Example 116, 2-{[(4-methoxypyridin-3-yl)amino]sulfonyl}-N-(2-methylbutyl)benzamide]: on CYP3A4 [1], the IC50 came to 0.033 µM. The Ki came out at 0.317 µM on CYP3A4 [2] (setting [3]) and 0.0509 µM at CYP3A4 [2] (setting [4]).
In the same order, the values of `Nc1cncc(NS(=O)(=O)c2ccccc2C(=O)NCc2ccc(F)c(F)c2)c1` [Example 117, 2-{[(5-aminopyridin-3-yl)amino]sulfonyl}-N-(34-difluorobenzyl)benzamide] are 0.02 µM, 0.159 µM and 0.0148 µM.
With `CCC(C)CNC(=O)c1ccccc1S(=O)(=O)Nc1cncc(C)c1` (stereo not drawn) [Example 118, N-(2-methylbutyl)-2-{[(5-methylpyridin-3-yl)amino]sulfonyl}benzamide], the half-maximal inhibitory concentration (IC50) at CYP3A4 [1] was found to be 0.018 µM. The Ki was 0.103 µM at CYP3A4 [2] (setting [3]) and 0.0135 µM on CYP3A4 [2] (setting [4]).
Regarding `CCOc1ccncc1NS(=O)(=O)c1ccccc1C(=O)NC(C)CC` (stereo not drawn) [Example 119, N-(sec-butyl)-2-{[(4-ethoxypyridin-3-yl)amino]sulfonyl}benzamide], on CYP3A4 [1], the IC50 is 0.045 µM. The Ki at CYP3A4 [2] (setting [3]) turned out to be 0.249 µM; on CYP3A4 [2] (setting [4]), 0.0712 µM.
With `CCC(C)NC(=O)c1ccccc1S(=O)(=O)Nc1cnccc1OC` (stereo not drawn) [Example 120, N-(sec-butyl)-2-{[(4-methoxypyridin-3-yl)amino]sulfonyl}benzamide], the IC50 at CYP3A4 [1] was determined as 0.086 µM. The Ki worked out at 0.487 µM on CYP3A4 [2] (setting [3]) and 0.14 µM at CYP3A4 [2] (setting [4]).
The matching figures for `CCC(C)NC(=O)c1ccccc1S(=O)(=O)Nc1cncc(C)c1` (stereo not drawn) [Example 121, N-(sec-butyl)-2-{[(5-methylpyridin-3-yl)amino]sulfonyl}benzamide]: 0.031 µM, 0.49 µM and 0.0712 µM.
Turning to `CCOc1ccncc1NS(=O)(=O)c1ccccc1C(=O)N(C)Cc1ccc(C(F)(F)F)cc1` [Example 122, 2-{[(4-ethoxypyridin-3-yl)amino]sulfonyl}-N-methyl-N-[4-(trifluoromethyl)benzyl]benzamide], the IC50 at CYP3A4 [1] is 0.031 µM. The Ki on CYP3A4 [2] (setting [3]) stood at 0.0495 µM; on CYP3A4 [2] (setting [4]) it was 0.01 µM.
Consider `COc1ccncc1NS(=O)(=O)c1ccccc1C(=O)N(C)Cc1ccc(C(F)(F)F)cc1` [Example 123, 2-{[(4-methoxypyridin-3-yl)amino]sulfonyl}-N-methyl-N-[4-(trifluoromethyl)benzyl]benzamide], for which the IC50 on CYP3A4 [1] was determined as 0.01 µM. Besides, the Ki at CYP3A4 [2] (setting [3]) came to 0.0725 µM; on CYP3A4 [2] (setting [4]) it was 0.0152 µM.
Consider `CCOc1ccncc1NS(=O)(=O)c1ccccc1C(=O)N(C)Cc1ccccc1F` [Example 124, 2-{[(4-ethoxypyridin-3-yl)amino]sulfonyl}-N-(2-fluorobenzyl)-N-methylbenzamide], for which, on CYP3A4 [1], the IC50 came out at 0.014 µM. For the same molecule, the Ki at CYP3A4 [2] (setting [3]) is 0.136 µM; at CYP3A4 [2] (setting [4]) it was 0.018 µM.
In the same order, the values of `COc1ccncc1NS(=O)(=O)c1ccccc1C(=O)N(C)Cc1ccccc1F` [Example 125, N-(2-fluorobenzyl)-2-{[(4-methoxypyridin-3-yl)amino]sulfonyl}-N-methylbenzamide] are 0.02 µM, 0.185 µM and 0.0312 µM.
Consider `COCCN(C(=O)c1ccccc1S(=O)(=O)Nc1cnccc1OC)C(C)C` [Example 127, N-isopropyl-N-(2-methoxyethyl)-2-{[(4-methoxypyridin-3-yl)amino]sulfonyl}benzamide], for which the IC50 at CYP3A4 [1] amounted to 0.107 µM. Besides, the values for the Ki at CYP3A4 [2] (setting [3]) and at CYP3A4 [2] (setting [4]) were 0.694 µM and 0.282 µM, respectively.
For the molecule `COCCN(C(=O)c1ccccc1S(=O)(=O)Nc1cccnc1)C(C)C` [Example 128, N-isopropyl-N-(2-methoxyethyl)-2-[(pyridin-3-ylamino)sulfonyl]benzamide], the half-inhibitory concentration (IC50) on CYP3A4 [1] was 0.067 µM. Besides, the Ki on CYP3A4 [2] (setting [3]) stood at 0.448 µM; at CYP3A4 [2] (setting [4]), 0.0549 µM.
For the molecule `Cc1cncc(NS(=O)(=O)c2ccccc2C(=O)N(C)Cc2ccccc2F)c1` [Example 129, N-(2-fluorobenzyl)-N-methyl-2-{[(5-methylpyridin-3-yl)amino]sulfonyl}benzamide], the IC50 on CYP3A4 [1] amounted to 0.012 µM. Besides, the figures for the Ki on CYP3A4 [2] (setting [3]) and on CYP3A4 [2] (setting [4]) were 0.0876 µM and 0.0096 µM, respectively.
In the case of `COCCN(C(=O)c1ccccc1S(=O)(=O)Nc1cncc(C)c1)C(C)C` [Example 130, N-isopropyl-N-(2-methoxyethyl)-2-{[(5-methylpyridin-3-yl)amino]sulfonyl}benzamide], at CYP3A4 [1], the IC50 turned out to be 0.022 µM. The Ki at CYP3A4 [2] (setting [3]) was determined as 0.134 µM; at CYP3A4 [2] (setting [4]), 0.0628 µM.
Turning to `COc1cncc(NS(=O)(=O)c2ccccc2C(=O)NCC(F)(F)C(F)(F)C(F)(F)F)c1` [Example 131, N-(2,2,3,3,4,4,4-heptafluorobutyl)-2-{[(5-methoxypyridin-3-yl)amino]sulfonyl}benzamide], the IC50 at CYP3A4 [1] was over 0.75 µM. In addition, the Ki is over 1 µM at CYP3A4 [2] (setting [3]) and 0.329 µM on CYP3A4 [2] (setting [4]).
The matching figures for `COc1cncc(NS(=O)(=O)c2ccccc2C(=O)NCc2ccc(Cl)c(F)c2)c1` [Example 132, N-(4-chloro-3-fluorobenzyl)-2-{[(5-methoxypyridin-3-yl)amino]sulfonyl}benzamide]: 0.008 µM, 0.0406 µM and 0.0084 µM.
`COc1cncc(NS(=O)(=O)c2ccccc2C(=O)NCc2c(Cl)cccc2Cl)c1` [Example 133, N-(2,6-dichlorobenzyl)-2-{[(5-methoxypyridin-3-yl)amino]sulfonyl}benzamide]: the IC50 at CYP3A4 [1] was determined as 0.018 µM. For the same molecule, the Ki on CYP3A4 [2] (setting [3]) was determined as 0.0678 µM; on CYP3A4 [2] (setting [4]), 0.0116 µM.
For the molecule `COc1cncc(NS(=O)(=O)c2ccccc2C(=O)NCCc2ccc(C(F)(F)F)c(F)c2)c1` [Example 134, N-{2-[3-fluoro-(trifluoromethyl)phenyl]ethyl}-2-{[(5-methoxypyridin-3-yl)amino]sulfonyl}benzamide], the IC50 at CYP3A4 [1] was 0.014 µM. In addition, the Ki is 0.0697 µM on CYP3A4 [2] (setting [3]) and 0.0087 µM on CYP3A4 [2] (setting [4]).
On to `COc1cncc(NS(=O)(=O)c2ccccc2C(=O)NC(C)Cc2ccc(F)c(F)c2)c1` (stereo not drawn) [Example 135], for which the IC50 at CYP3A4 [1] came to 0.018 µM. Further, the Ki on CYP3A4 [2] (setting [3]) was determined as 0.0248 µM; on CYP3A4 [2] (setting [4]), 0.0049 µM.
With `COc1cncc(NS(=O)(=O)c2ccccc2C(=O)NCCc2ccc(C)c(F)c2F)c1` [Example 136, N-[2-(2,3-difluoro-4-methylphenyl)ethyl]-2-{[(5-methoxypyridin-3-yl)amino]sulfonyl}benzamide], the IC50 at CYP3A4 [1] was 0.01 µM. In addition, the Ki at CYP3A4 [2] (setting [3]) was 0.0598 µM; at CYP3A4 [2] (setting [4]) it was 0.0048 µM.
In the same order, the values of `COc1cncc(NS(=O)(=O)c2ccccc2C(=O)NCCc2ccc(F)c(F)c2)c1` [Example 137, N-[2-(3,4-difluorophenyl)ethyl]-2-{[(5-methoxypyridin-3-yl)amino]sulfonyl}benzamide] are 0.018 µM, 0.115 µM and 0.0073 µM.
The matching figures for `COc1cncc(NS(=O)(=O)c2ccccc2C(=O)NCc2ccc(C)c(Cl)c2)c1` [Example 138, N-(3-chloro-4-methylbenzyl)-2-{[(5-methoxypyridin-3-yl)amino]sulfonyl}benzamide]: 0.016 µM, 0.0196 µM and 0.0027 µM.
